From patent US20240224953A1 (Barlaa B.V., priority 2021, published 2024)
Like-named read-outs stand apart in the source and are kept apart here.

Key:
[1] = test system: whiteleg shrimps (Litopenaeus vannamei)
Method: Water quality parameters, including salinity, dissolved oxygen, pH and total ammonia nitrogen (TAN) were monitored regularly in both control and treated ponds. The growth rate of the shrimps was monitored regularly. Total number was counted and mean body weight of shrimp was measured. Based on recording the weight of shrimp and counting the number of shrimps, weight gain, feed conversion ratio (FCR) and survival were calculated.

whiteleg shrimps [2] = test system: whiteleg shrimps
Excerpt: In […] further experiments were done in Gujarat-India on whiteleg shrimps.

whiteleg shrimp = test system: whiteleg shrimp
Excerpt: Trials are done in Northern part, Central part and Southern part in Vietnam, 2020-2021.

[3] = test system: Tiger shrimps (Penaeus monodon); settings: three ponds, applied after each change of water every 5 days
Method: Tiger shrimps (Penaeus monodon), also named giant tiger prawn, asian tiger prawn or black tiger shrimp, is one of the most popular cultured shrimp species in the world.
A small scale trial was carried out in 2019 in Chittagong-Bangladesh in three ponds of +2.5 ha.

Pangasius hypophthalmus = assay: Experiment 7C: pond trial on Pangasius in Bangladesh; format: in vivo; settings: overall results of the 8 ponds
Excerpt: Pangas belonging to the genus of medium-large catfishes, is a relatively new and fast-growing fish species that has great potential for production and export growth in Bangladesh. Polyculture of pangasius (P. hypophthalmus) with carps is the existing culture practice along with monoculture being practiced by many households in Bangladesh.
Trials have been done in 2019 in Mymensingh region on 4 ponds with an average of 1,4 ha and an average depth of 1.5 m in the dry season and 2 m. in the rainy season (May to November). For feeding standard commercial pelleted feeds were used.

trypsin gene = settings: hepatopancreas, after 56 days, versus control, FIG. 2
Method: At the end of the grow-out period, shrimp were sampled for the growth and feed utilisation metrics. Water quality parameters were measured three times daily. At the end of the trial, shrimps were assessed for the growth performance as described below. Shrimp from each treatment group were examined and the hepato-pancreas removed carefully from 10 individual animals and processed as described below.
For RNA extraction, hepatopancreases were extracted by using trizol reagent (Invitrogen, USA). Briefly, 1 ml of trizol reagent were added into 50-100 mg of tissue samples. then, the samples were homogenized at 3,500 rpm for 1 min by using Micro Smash MS-100R (TOMY, Japan). After incubated sample at RT for 5 min, 200 μl of chloroform were added and mixed vigorous. The samples were centrifuged at 12,000 rpm at 4° C. for 15 min. after collected supernatant into new 1.5 ml tube, 1 volume of isopropanol were added and incubated at −20° C. for 2 h or O/N. Next, RNA pellets were collected by centrifuged at 12,000 rpm at 4° C. for 15 min. then, the pellets were washed with 500 μl of 75% ethanol and dried pellet at 65° C. Lastly, 30 μl of RNase free water was added for dissolved RNA pellet. RNA concentration was measured by using nanodrop spectrophotometer (Thermo Fisher Scientific, USA).

whiteleg shrimps [4] = test system: whiteleg shrimps; remark: listed apart in the source
whiteleg shrimps [5] = settings: applied once or twice a day, 6 ponds
[6] = test system: Pacific Whiteleg shrimp (Litopenaeus vannamei)
Method: An 8-week growth trial study on Pacific Whiteleg shrimp (Litopenaeus vannamei) (1.0 g/shrimp) in duplicate was conducted in a 3,200 m2 earthen pond (100,000 shrimps per 1,600 m2) at the GAP certified private shrimp farm, Nakhon Pathom province, Thailand. […] The pond size was 2 Rai (1 Rai is 1,600 m^2). Stocking density is 100,000 shrimps/1 Rai.
Shrimp were fed by automatic feeder four times a day according to the farming standard. […] The bespoke shrimp feed specification was Crude Protein 38%, Crude Fat 7%, and diet pellet sizes of 1.5 mm; 2.0 mm; 2.5 mm that were assigned across the trial period to optimise maximum intake.

α-amylase gene = settings: hepatopancreas, after 56 days, versus control, FIG. 2
Method: For RNA extraction, hepatopancreases were extracted by using trizol reagent (Invitrogen, USA). Briefly, 1 ml of trizol reagent were added into 50-100 mg of tissue samples. then, the samples were homogenized at 3,500 rpm for 1 min by using Micro Smash MS-100R (TOMY, Japan). After incubated sample at RT for 5 min, 200 μl of chloroform were added and mixed vigorous. The samples were centrifuged at 12,000 rpm at 4° C. for 15 min. after collected supernatant into new 1.5 ml tube, 1 volume of isopropanol were added and incubated at −20° C. for 2 h or O/N. Next, RNA pellets were collected by centrifuged at 12,000 rpm at 4° C. for 15 min. then, the pellets were washed with 500 μl of 75% ethanol and dried pellet at 65° C. Lastly, 30 μl of RNase free water was added for dissolved RNA pellet. RNA concentration was measured by using nanodrop spectrophotometer (Thermo Fisher Scientific, USA). […]
Real-time PCR was used to detected growth genes in shrimp.
Reaction mixture for real-time PCR was composed of 1 μl of 100 cDNA, 5 μl of 2× qPCRBIO SyGreen mix, forward and reverse primer at final concentration 0.2 μM and adjusted volume up to 10 μl by nuclease free water. […] The relative fold gene expression level was calculated by using the formula below: […]

[7] = all testing locations in Vietnam, 2020-2021

## silicic acid [bioavailable silicic acid compound]
[1]; first experiments, 2017, brackish ponds, Gujarat
  average weight gain of the shrimps compared to control pond: 26%
[1]; second trial
  increase (average weight gain) compared to control: 17.5%
Whiteleg shrimps [2]; 8 ponds, 1.5 liters of 2.5% product every 15 days, compared to control
  average yield increase of shrimps: 18.3%
Whiteleg shrimps [2]; average of treated ponds (control ponds 1.52)
  food conversion rate (FCR): 1.45
Whiteleg shrimp; Central Vietnam
  environment, growth, survival, and energy efficiency of shrimp production: remarkably good results
Whiteleg shrimp; [7]
  higher yields (average): 18.7%
  larger shrimps (average): 14%
[3]
  overall yield increase (compared to control): 18.4%
Pangasius hypophthalmus; both treatments pooled
  increase of overall yield: 16.6%
Pangasius hypophthalmus; both treatments pooled (from 11.400 kg/ha/year)
  overall yield: 13.300 kg/ha/year
Trypsin gene
  trypsin gene expression relative to housekeeping gene: down regulation
Whiteleg shrimps [4]; 4 ponds, application every 3 days, brackish water
  average yield increase of shrimps: 24.27%
Whiteleg shrimps [4]; average of treated ponds (control ponds 1.5)
  feed conversion rate (FCR): 1.37
Whiteleg shrimps [5]
  overall increase of the yield: 19%
[6]; 8-weeks growth trial, FIG. 1 (control 9.48)
  average (mean) weight of shrimp at end of trial: 12.49 g
[6]; 8 weeks, with silicic acid
  Apparent net protein utilization (%): 36.4 ± 1.4 ^A %
  Average daily gain: 0.12 ± 0.02 g/day
  Feed conversion ratio: 1.18 ± 0.05 ^A
  Final weight (g/shrimp): 12.49 ± 2.46 g/shrimp
  Specific growth rate (%/day): 3.21 ± 0.20 ^A %/day
  Survival rate (%): 69.8 ± 4.5 ^A %
  Total biomass (kg of harvested shrimp): 1,047 ± 208.25 ^A kg
[6]; exposed for 8 weeks
  shrimp performance under pond rearing conditions: significantly better
α-amylase gene
  α-amylase gene expression relative to housekeeping gene: down regulation
